Source: ChEMBL document CHEMBL1949494, “SAR of α7 nicotinic receptor agonists derived from tilorone: exploration of a novel nicotinic pharmacophore” (Bioorg Med Chem Lett, 2012)

Experiments:
[1] = target: Neuronal acetylcholine receptor subunit alpha-7 (Rattus norvegicus, UniProt Q05941); assay: Displacement of [3H]methyllylcaconitine from alpha7 nAChR in rat brain; type: tissue-based
[2] = target: T1, Neuronal acetylcholine receptor subunit alpha-7 (Homo sapiens, UniProt P36544); assay: Agonist activity at human recombinant alpha7 nAChR expressed in xenopus oocytes by patch clamp assay; type: functional, cell-based, Oocyte
[3] = target: T1, Neuronal acetylcholine receptor subunit alpha-7; assay: Agonist activity at human recombinant alpha7 nAChR expressed in xenopus oocytes by patch clamp assay relative to acetylcholine; type: functional, cell-based; details: Oocyte
[4] = target: Neuronal acetylcholine receptor; alpha3/beta2 (Homo sapiens, UniProt P17787+P32297); assay: Agonist activity at alpha3beta2 nAChR receptor by FLIPR assay; type: functional
[5] = target: T2, Neuronal acetylcholine receptor; alpha3/beta4 (Homo sapiens, UniProt P30926+P32297); assay: Agonist activity at alpha3beta4 nAChR receptor by FLIPR assay; type: functional
[6] = target: T3, Neuronal acetylcholine receptor; alpha4/beta2 (Homo sapiens, UniProt P17787+P43681); assay: Agonist activity at alpha4beta2 nAChR receptor by FLIPR assay; type: functional
[7] = target: Neuronal acetylcholine receptor; alpha4/beta4 (Homo sapiens, UniProt P30926+P43681); assay: Agonist activity at alpha4beta4 nAChR receptor by FLIPR assay; type: functional
[8] = target: Muscarinic acetylcholine receptor; assay: Binding affinity to muscarinic receptor in rat brain; type: tissue-based
[9] = target: Neuronal acetylcholine receptor subunit alpha-7 (Rattus norvegicus) (UniProt Q05941); assay: Ratio of tilorone Ki to compound Ki for alpha7 nAChR in rat brain; type: tissue-based
[10] = Binding affinity to 5HT3
[11] = Ratio of drug level in brain to plasma in rat at 3 umol/kg, ip at 30 mins; type: ADME, organism-based; details: read-out: BPR
[12] = Plasma concentration in rat at 3 umol/kg, ip at 30 mins; type: ADME, organism-based
[13] = target: T3, Neuronal acetylcholine receptor; alpha4/beta2; assay: Agonist activity at human recombinant alpha4beta2 nAChR in HEK293 cells by FLIPR assay; type: functional, cell-based
[14] = target: T2, Neuronal acetylcholine receptor; alpha3/beta4; assay: Agonist activity at human recombinant alpha3beta4 nAChR in HEK293 cells by FLIPR assay; type: functional, cell-based
[15] = target: Voltage-gated inwardly rectifying potassium channel KCNH2 (Homo sapiens, UniProt Q12809); assay: Displacement of [3H]dofetilide from human ERG expressed in HEK293 cells
Voltage-gated inwardly rectifying potassium channel KCNH2, sequence (Q12809 whole entry): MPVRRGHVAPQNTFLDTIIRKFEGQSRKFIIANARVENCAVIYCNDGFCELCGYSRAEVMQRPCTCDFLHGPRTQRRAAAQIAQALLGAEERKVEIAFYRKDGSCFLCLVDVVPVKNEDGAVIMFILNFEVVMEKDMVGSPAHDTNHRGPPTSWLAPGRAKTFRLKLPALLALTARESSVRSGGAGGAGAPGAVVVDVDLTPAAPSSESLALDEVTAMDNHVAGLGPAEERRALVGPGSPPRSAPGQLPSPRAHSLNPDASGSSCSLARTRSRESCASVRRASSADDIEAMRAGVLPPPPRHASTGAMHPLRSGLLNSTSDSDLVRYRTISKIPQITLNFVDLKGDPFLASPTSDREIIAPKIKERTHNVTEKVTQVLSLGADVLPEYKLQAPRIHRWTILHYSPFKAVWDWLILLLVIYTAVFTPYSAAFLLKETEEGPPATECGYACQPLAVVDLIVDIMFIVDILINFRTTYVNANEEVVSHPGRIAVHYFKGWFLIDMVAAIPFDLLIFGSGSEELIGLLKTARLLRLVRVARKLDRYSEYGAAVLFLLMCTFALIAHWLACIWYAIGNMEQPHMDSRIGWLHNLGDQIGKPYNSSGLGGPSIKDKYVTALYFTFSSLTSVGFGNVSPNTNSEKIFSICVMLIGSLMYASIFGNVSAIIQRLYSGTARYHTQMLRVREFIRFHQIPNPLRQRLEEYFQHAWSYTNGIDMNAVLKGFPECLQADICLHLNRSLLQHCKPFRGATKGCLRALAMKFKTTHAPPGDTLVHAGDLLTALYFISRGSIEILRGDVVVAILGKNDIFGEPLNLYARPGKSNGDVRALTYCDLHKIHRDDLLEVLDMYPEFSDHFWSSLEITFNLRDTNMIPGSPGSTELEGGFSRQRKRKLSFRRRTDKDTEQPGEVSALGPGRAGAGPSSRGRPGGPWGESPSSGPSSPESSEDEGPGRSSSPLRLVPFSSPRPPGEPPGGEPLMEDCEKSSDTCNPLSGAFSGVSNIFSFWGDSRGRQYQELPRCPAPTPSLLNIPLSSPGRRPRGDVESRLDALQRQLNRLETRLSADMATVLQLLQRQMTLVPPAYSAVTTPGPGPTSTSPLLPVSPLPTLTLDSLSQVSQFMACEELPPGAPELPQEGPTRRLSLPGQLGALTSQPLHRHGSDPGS

T1 sequence (P36544 whole entry): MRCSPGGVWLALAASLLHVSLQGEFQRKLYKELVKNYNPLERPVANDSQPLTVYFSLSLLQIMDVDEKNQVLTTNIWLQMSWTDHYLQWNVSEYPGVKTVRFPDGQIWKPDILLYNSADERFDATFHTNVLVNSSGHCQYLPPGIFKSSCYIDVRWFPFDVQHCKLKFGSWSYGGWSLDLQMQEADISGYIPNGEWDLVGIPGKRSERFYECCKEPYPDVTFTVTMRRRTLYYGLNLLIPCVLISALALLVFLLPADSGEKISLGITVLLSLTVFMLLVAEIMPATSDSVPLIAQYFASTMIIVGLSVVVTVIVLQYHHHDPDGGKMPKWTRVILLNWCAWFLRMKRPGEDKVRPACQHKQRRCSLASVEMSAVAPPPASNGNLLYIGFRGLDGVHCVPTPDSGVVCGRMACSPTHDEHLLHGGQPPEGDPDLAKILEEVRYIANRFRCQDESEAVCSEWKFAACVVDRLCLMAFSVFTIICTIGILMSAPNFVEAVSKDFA
T3 sequence (P17787 whole entry): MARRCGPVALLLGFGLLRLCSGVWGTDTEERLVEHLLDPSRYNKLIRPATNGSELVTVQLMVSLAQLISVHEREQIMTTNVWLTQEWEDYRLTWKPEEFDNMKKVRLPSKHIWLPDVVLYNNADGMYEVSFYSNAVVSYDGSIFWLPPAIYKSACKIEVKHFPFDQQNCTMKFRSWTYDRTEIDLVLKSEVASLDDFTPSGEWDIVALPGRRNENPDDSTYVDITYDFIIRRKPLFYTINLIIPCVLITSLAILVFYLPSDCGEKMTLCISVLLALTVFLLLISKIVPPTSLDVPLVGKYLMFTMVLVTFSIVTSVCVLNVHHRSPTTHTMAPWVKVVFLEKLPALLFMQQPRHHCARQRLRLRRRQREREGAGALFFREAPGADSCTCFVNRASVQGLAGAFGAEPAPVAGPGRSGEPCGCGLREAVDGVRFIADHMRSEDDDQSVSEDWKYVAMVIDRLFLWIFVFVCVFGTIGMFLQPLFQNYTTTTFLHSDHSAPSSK
T3 sequence (P43681 whole entry): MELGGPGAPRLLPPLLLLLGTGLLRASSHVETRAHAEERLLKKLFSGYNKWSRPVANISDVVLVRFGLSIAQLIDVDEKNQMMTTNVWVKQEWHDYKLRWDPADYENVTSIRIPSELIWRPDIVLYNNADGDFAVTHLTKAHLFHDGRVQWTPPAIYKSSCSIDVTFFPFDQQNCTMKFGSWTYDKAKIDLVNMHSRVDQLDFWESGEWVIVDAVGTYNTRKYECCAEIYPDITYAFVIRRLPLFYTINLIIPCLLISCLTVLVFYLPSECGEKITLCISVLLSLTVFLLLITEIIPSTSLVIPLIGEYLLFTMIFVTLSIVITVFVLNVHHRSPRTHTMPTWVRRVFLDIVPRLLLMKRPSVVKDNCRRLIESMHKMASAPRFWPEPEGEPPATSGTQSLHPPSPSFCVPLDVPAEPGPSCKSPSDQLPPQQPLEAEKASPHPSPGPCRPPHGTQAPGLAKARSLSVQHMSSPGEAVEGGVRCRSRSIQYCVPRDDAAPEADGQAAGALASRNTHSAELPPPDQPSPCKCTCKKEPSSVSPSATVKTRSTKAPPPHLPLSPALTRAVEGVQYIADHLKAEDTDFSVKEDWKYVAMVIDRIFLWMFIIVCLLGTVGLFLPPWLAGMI
Neuronal acetylcholine receptor subunit alpha-7 (Rattus norvegicus, UniProt Q05941), sequence (Q05941 whole entry): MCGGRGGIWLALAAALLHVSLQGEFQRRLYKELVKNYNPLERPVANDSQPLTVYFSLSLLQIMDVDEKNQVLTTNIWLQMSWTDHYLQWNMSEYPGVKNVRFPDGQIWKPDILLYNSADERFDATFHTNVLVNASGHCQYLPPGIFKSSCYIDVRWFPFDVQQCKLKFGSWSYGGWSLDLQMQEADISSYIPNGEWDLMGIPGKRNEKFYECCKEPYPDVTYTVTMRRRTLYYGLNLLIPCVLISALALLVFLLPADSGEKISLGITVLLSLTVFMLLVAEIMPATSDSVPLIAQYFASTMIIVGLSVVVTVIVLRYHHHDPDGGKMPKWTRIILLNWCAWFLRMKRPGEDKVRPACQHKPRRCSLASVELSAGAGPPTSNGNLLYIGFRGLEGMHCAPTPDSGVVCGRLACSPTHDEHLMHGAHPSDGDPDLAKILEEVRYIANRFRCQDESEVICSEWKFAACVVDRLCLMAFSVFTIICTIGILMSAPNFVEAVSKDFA
T2 sequence (P30926 whole entry): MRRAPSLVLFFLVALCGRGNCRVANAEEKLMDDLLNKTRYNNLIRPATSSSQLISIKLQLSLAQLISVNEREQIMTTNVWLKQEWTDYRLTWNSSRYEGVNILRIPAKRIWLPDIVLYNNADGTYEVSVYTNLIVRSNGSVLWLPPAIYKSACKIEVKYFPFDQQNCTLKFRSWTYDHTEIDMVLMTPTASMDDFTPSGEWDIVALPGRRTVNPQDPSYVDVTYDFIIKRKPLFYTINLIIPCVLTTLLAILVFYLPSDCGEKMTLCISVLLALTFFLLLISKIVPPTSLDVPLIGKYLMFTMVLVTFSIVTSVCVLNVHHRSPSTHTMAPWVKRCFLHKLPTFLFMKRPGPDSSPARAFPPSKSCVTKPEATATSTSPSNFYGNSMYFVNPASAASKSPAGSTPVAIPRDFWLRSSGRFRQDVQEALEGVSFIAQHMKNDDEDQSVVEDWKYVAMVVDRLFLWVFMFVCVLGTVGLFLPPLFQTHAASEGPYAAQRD
T2 sequence (P32297 whole entry): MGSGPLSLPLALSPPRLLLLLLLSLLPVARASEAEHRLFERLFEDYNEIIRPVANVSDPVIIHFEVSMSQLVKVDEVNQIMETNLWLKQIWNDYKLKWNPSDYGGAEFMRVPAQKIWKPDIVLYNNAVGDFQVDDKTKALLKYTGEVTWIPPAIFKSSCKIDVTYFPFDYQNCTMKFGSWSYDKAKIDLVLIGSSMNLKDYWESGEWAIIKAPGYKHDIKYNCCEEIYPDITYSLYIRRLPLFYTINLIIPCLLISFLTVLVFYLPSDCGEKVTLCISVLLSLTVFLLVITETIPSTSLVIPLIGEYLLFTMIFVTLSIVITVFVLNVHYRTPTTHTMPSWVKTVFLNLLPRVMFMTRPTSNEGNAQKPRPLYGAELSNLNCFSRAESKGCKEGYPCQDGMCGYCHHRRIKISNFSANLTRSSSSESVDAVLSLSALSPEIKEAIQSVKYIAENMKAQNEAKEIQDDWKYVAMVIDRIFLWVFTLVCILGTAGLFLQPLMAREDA
Neuronal acetylcholine receptor subunit alpha-7 (Rattus norvegicus), sequence (Q05941 whole entry): as the sequence (Q05941 whole entry) above
Neuronal acetylcholine receptor; alpha3/beta2, sequence (P17787 whole entry): as the sequence (P17787 whole entry) above
Neuronal acetylcholine receptor; alpha3/beta2, sequence (P32297 whole entry): as the sequence (P32297 whole entry) above
Neuronal acetylcholine receptor; alpha4/beta4, sequence (P30926 whole entry): as the sequence (P30926 whole entry) above
Neuronal acetylcholine receptor; alpha4/beta4, sequence (P43681 whole entry): as the sequence (P43681 whole entry) above

| SMILES | Ki [1] | further results |
| --- | --- | --- |
| CCN(CC)CCOc1ccc(-c2ccc(OCCN(CC)CC)cc2)cc1 | > 1000 µM |  |
| CN1CCC[C@H]1COc1ccc2c(c1)C(=O)c1cc(OC[C@@H]3CCCN3C)ccc1-2 | 0.012 µM |  |
| O=C1c2ccccc2-c2ccc(N3CCN4CCC3CC4)cc21 | 0.00028 µM |  |
| CN1CC[C@@H]1COc1ccc2c(c1)C(=O)c1cc(OC[C@H]3CCN3C)ccc1-2 | 0.0043 µM |  |
| O=c1c2ccccc2oc2ccc(O[C@H]3CN4CCC3CC4)cc12 | 0.0087 µM |  |
| CCN(CC)CCOc1ccc2c(c1)C(=O)c1cc(OCCOC)ccc1-2 | 2 µM |  |
| CN1CC[C@@H](Oc2ccc3c(c2)C(=O)c2cc(O[C@@H]4CCN(C)C4)ccc2-3)C1 | 0.012 µM |  |
| O=C1c2ccccc2-c2ccc(O[C@@H]3CN4CCC3CC4)cc21 | 0.012 µM |  |
| O=C1c2ccccc2-c2ccc(O[C@H]3CN4CCC3CC4)cc21 | 0.0032 µM |  |
| O=S1(=O)c2ccccc2-c2ccc(O[C@@H]3CN4CCC3CC4)cc21 | 0.028 µM |  |
| O=C1c2cc(O[C@H]3CN4CCC3CC4)ccc2-c2ccc(O[C@H]3CN4CCC3CC4)cc21 | 0.00058 µM |  |
| O=S1(=O)c2ccccc2-c2ccc(O[C@H]3CN4CCC3CC4)cc21 | 0.0039 µM |  |
| CC[N+](C)(CC)CCOc1ccc2c(c1)C(=O)c1cc(OCC[N+](C)(CC)CC)ccc1-2 | 0.015 µM |  |
| CCN(CC)CCOc1ccc2c(c1)C(=O)c1ccccc1-2 | 1.8 µM |  |
| O=c1c2ccccc2oc2ccc(O[C@@H]3CN4CCC3CC4)cc12 | 0.0088 µM |  |
| CN1C[C@H]2CN(c3ccc4c(c3)C(=O)c3cc(N5C[C@@H]6CN(C)[C@@H]6C5)ccc3-4)C[C@H]21 | 9.2e-05 µM |  |
| CN1[C@@H]2CC[C@H]1C[C@H](Oc1ccc3c(c1)C(=O)c1cc(O[C@@H]4C[C@H]5CC[C@@H](C4)N5C)ccc1-3)C2 | 0.09 µM |  |
| O=C1c2cc(O[C@@H]3CN4CCC3CC4)ccc2-c2ccc(O[C@@H]3CN4CCC3CC4)cc21 | 0.0016 µM |  |
| O=C1c2cc(O[C@@H]3CCNC3)ccc2-c2ccc(O[C@@H]3CCNC3)cc21 | 0.071 µM |  |
| c1ccc2c(c1)Cc1cc(O[C@@H]3CN4CCC3CC4)ccc1-2 | 0.34 µM |  |
| O=S1(=O)c2ccccc2-c2ccc(N3CCN4CCC3CC4)cc21 | 2.3e-05 µM | Ki [10]: 0.66 µM; Ki [15]: 0.47 µM; Kp at 0.5 h [11]: 12; concentration at 0.5 h [12]: 8.4 ng/mL; EC50 [2]: > 100 µM; Emax [3]: < 5%; EC50 [13]: > 100 µM; EC50 [14]: > 100 µM |
| CCN(CC)CCOc1ccc2ccc(OCCN(CC)CC)cc2c1 | > 1000 µM |  |
| CN1CC2CN(c3ccc4c(c3)C(=O)c3cc(N)ccc3-4)CC2C1 (configuration not stated) | 0.00065 µM |  |
| c1ccc2c(c1)Cc1cc(O[C@H]3CN4CCC3CC4)ccc1-2 | 0.11 µM |  |

Continued, in another order:

| Ki [1] | SMILES | further results |
| --- | --- | --- |
| 0.018 µM | O=C1c2cc(N3C[C@@H]4CN[C@@H]4C3)ccc2-c2ccc(N3C[C@@H]4CN[C@@H]4C3)cc21 |  |
| 0.056 µM | CCN(CC)CCOc1ccc2c(c1)C(=O)c1cc(OCCN(CC)CC)ccc1-2 [TILORONE] | EC50 [2]: 2.5 µM; Emax [3]: 67%; EC50 [4]: > 10 µM; EC50 [5]: > 10 µM; EC50 [6]: > 10 µM; EC50 [7]: > 10 µM; Ki [8]: 0.42 µM |
| 1.3 µM | CC(C)N(CCOc1ccc2c(c1)C(=O)c1cc(OCCN(C(C)C)C(C)C)ccc1-2)C(C)C |  |
| 0.0065 µM | CN1CCCN(c2ccc3c(c2)C(=O)c2cc(N4CCCN(C)CC4)ccc2-3)CC1 | Ratio Ki [9]: 10 |
| 0.0059 µM | CN1C[C@H]2CN(c3ccc4c(c3)C(=O)c3ccccc3-4)C[C@H]21 | Ratio Ki [9]: 10 |
| 0.0012 µM | CN1CC2CN(c3ccc4c(c3)C(=O)c3cc(N5CC6CN(C)CC6C5)ccc3-4)CC2C1 (configuration not stated) |  |
| 1.6 µM | CCN(CC)CCOc1ccc2c(c1)sc1cc(OCCN(CC)CC)ccc12 |  |
| 0.053 µM | O=C1c2cc(OCCN3CCCC3)ccc2-c2ccc(OCCN3CCCC3)cc21 |  |
| 0.14 µM | CN1CCN(c2ccc3c(c2)C(=O)c2cc(N4CCN(C)CC4)ccc2-3)CC1 |  |
| 68 µM | CCN(CC)CCOc1cccc(C(=O)c2cccc(OCCN(CC)CC)c2)c1 |  |
| 0.69 µM | CCN(CC)CCOc1ccc2c3ccc(OCCN(CC)CC)cc3[s+]([O-])c2c1 |  |
| 0.063 µM | CN1CC2CN(c3ccc4c(c3)C(=O)c3ccccc3-4)CC2C1 (configuration not stated) |  |
| 2.9 µM | CCN(CC)CCCc1ccc2c(c1)C(=O)c1cc(CCCN(CC)CC)ccc1-2 |  |
| 15 µM | NCCOc1ccc2c(c1)C(=O)c1cc(OCCN)ccc1-2 |  |
| 0.83 µM | CCN(CC)CCCOc1ccc2c(c1)C(=O)c1cc(OCCCN(CC)CC)ccc1-2 |  |
| 0.037 µM | CN1CCC(Oc2ccc3c(c2)C(=O)c2cc(OC4CCN(C)CC4)ccc2-3)CC1 |  |
| 0.087 µM | CCN(CC)CC#Cc1ccc2c(c1)C(=O)c1cc(C#CCN(CC)CC)ccc1-2 |  |
| 2.3 µM | CCN(CC)CCCCOc1ccc2c(c1)C(=O)c1cc(OCCCCN(CC)CC)ccc1-2 |  |
| 0.44 µM | CCN(CC)CCOc1ccc2oc3ccc(OCCN(CC)CC)cc3c(=O)c2c1 |  |
| 0.77 µM | CCN(CC)CCOc1ccc2c(c1)Cc1cc(OCCN(CC)CC)ccc1-2 |  |
| 0.004 µM | CN1CC2CN(c3ccc4oc5ccccc5c(=O)c4c3)CC2C1 (configuration not stated) | Ki [10]: 0.1 µM; Kp at 0.5 h [11]: 48; concentration at 0.5 h [12]: 12.4 ng/mL; EC50 [2]: 2.2 µM; Emax [3]: 61%; EC50 [13]: > 100 µM; EC50 [14]: > 100 µM |
| 4.2 µM | O=C1c2cc(OCCN3CCCCC3)ccc2-c2ccc(OCCN3CCCCC3)cc21 |  |
| 0.0076 µM | CN1CCC[C@@H]1COc1ccc2c(c1)C(=O)c1cc(OC[C@H]3CCCN3C)ccc1-2 |  |
| 0.23 µM | CCN(CC)CCOc1ccc2c(c1)S(=O)(=O)c1cc(OCCN(CC)CC)ccc1-2 |  |
| 0.05 µM | CN(C)CCOc1ccc2c(c1)C(=O)c1cc(OCCN(C)C)ccc1-2 |  |
| 0.95 µM | CCNCCOc1ccc2c(c1)C(=O)c1cc(OCCNCC)ccc1-2 |  |
| 0.00031 µM | O=C1c2cc(N3CC4CNCC4C3)ccc2-c2ccc(N3CC4CNCC4C3)cc21 (configuration not stated) |  |
| 0.27 µM | CCN(CC)CCOc1ccc2c(c1)C(O)c1cc(OCCN(CC)CC)ccc1-2 |  |
| 0.023 µM | CN1C[C@H]2CN(c3ccc4c(c3)S(=O)(=O)c3ccccc3-4)C[C@H]21 |  |
